This is an account of results in patent US9187486B2 (AMGEN INC., priority 2011, dated 2015).

The target in test [1] is T1, Pim-1 (Homo sapiens (Human), UniProt P11309). The experiment in a line: Pim-Mn enzyme assay (HTRF, 384-well), Pim-1. Format: biochemical. As to conditions: Pim-1 enzyme 5 pM, ATP […], read-out: Pim-1-Mn IC50 IP. An excerpt:
(§1) Full-length human cDNAs encoding Pim-1 (MGC ID 3913552) or Pim-2 (IMAGE ID 5092935) were purchased from Invitrogen, Carlsbad, Calif. These cDNAs were used as templates in PCR reactions to produce full-length DNA clones of the PIMs. Oligonucleotide PCR primers for Pim-1 were 5′-[…]-3′ and 5′-[…]-3′. Oligonucleotide PCR primers for Pim-2 were 5′-[…]-3′ and 5′-[…]-3′. PCR products were digested with BclI and EcoRI for Pim-1 and BamHI and EcoRI for Pim-2 and ligated into a modified baculovirus transfer vector (pFastBac 1) cleaved with BamHI and EcoRI. […]
(§2) The frozen cell pellets were thawed by stirring in chilled lysis buffer (0.05 M HEPES, pH 8.0, 0.25 M NaCl, 0.01 M 2-mercaptoethanol, 10% (w/v) glycerol, 0.5% (v/v) protease inhibitor cocktail (Sigma P-8340) at a ratio of 1 L/200 g cells until homogeneous. The thawed suspension was applied to a microfluidizer at 10,000 PSI to disrupt the cells and the whole lysates were clarified by centrifugation at 50,000×g for 90 min, 4° C. Imidazole was added to the clarified lysate to a final concentration of 2.5 mM and the lysate was mixed with 10 mL of Talon resin (Clontech) and the slurry rocked gently overnight at 4° C. […] Fractions were analyzed by SDS-PAGE and those containing the protein of interest were pooled and concentrated. […] The protein eluted at a retention time indicative of it being monomeric and fractions were analyzed by SDS-PAGE. […]
(Time-resolved FRET reads energy transfer from a long-lived donor to a nearby acceptor.)

Test [2] deals with T2, Pim-2 (Homo sapiens (Human), UniProt Q9P1W9). Nature of the test: Pim-Mn enzyme assay (HTRF, 384-well), Pim-2. Conditions: Pim-2 enzyme 0.5 pM, ATP […], read-out: Pim-2-Mn IC50 IP. The format is biochemical.
T2 sequence (Q9P1W9 whole entry): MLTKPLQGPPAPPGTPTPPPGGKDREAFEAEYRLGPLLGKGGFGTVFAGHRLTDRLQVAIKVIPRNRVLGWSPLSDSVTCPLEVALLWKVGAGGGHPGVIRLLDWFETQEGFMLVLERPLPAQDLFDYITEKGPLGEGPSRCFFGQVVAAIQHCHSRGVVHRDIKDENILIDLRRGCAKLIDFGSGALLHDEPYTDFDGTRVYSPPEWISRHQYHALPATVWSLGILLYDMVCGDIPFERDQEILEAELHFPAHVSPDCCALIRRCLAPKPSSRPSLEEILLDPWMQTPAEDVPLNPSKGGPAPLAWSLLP
Text: as §1, §2

The target of test [3] is T1, Pim-1. Nature of the test: Pim enzyme assay (HTRF, phosphorylation of biotinylated-BAD (S112) peptide), Pim-1. The format is biochemical. Summed up:
(§3)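 Full-length human Pim-1 or Pim-2 with an N-terminal His6 tag, expressed in Sf9 or E. coli and purified as monomer. HTRF read-out: biotinylated BAD (S112) peptide phosphorylation detected with streptavidin-APC plus Eu-anti-phospho-BAD(S112) antibody, excitation 337 nm, emission 665 nm.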

For test [4], the system named is KMS-12-BM myeloma cell line. Nature of the test: Pim cell assay: phospho-BAD (S112) and total BAD in KMS-12-BM cells. Format: cell-based. Conditions: 1 hour and 50 minutes incubation. Summed up: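 KMS-12-BM myeloma cells, after overnight culture, got a 10-point compound dose series (0.3% DMSO) for 1 h 50 min at 37 °C. Lysates measured for phospho-BAD (S112) and total BAD by MSD immunoassay; % phosphoprotein = 2×phospho/(phospho+total)×100.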

The target in test [5] is T2, Pim-2. Nature of the test: Pim enzyme assay (HTRF, phosphorylation of biotinylated-BAD (S112) peptide), Pim-2. Format: biochemical. Summed up:
as §3

[6] abbreviates: full length recombinant Pim-1, biotinylated-BAD (S112) peptide, HTRF, read-out: Pim_1_IC50.
Setting [7] is: Homo sapiens, KMS-12-BM, read-out: KMS12_Cell_IC50.
Where [8] appears, read: full length recombinant Pim-1, biotinylated-BAD (S112) peptide, HTRF, 96-well, read-out: Pim-1 IC50 IP.
The mark [9] stands for this setting: Homo sapiens, KMS-12-BM, read-out: KMS-12-BM IC50 IP.
Where [10] appears, read: full length recombinant Pim-2, biotinylated-BAD (S112) peptide, HTRF, 96-well, read-out: Pim-2 IC50 IP.
[11] abbreviates: full length recombinant Pim-2, biotinylated-BAD (S112) peptide, HTRF, read-out: Pim2_IC50.

Where two headings read alike, the source gives them in different places.

T1 sequence (P11309 whole entry): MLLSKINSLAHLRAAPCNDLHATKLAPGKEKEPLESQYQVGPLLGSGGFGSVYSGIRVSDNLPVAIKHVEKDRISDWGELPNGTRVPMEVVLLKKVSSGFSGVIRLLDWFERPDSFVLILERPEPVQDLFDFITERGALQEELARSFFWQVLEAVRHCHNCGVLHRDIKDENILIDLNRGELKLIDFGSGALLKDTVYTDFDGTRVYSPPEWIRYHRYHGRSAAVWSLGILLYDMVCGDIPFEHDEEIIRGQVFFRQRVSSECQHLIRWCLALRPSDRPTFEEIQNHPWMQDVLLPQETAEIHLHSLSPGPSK

As for `Cc1noc(C)c1-c1ccncc1Nc1ncc2ccc(-c3c(F)cccc3F)nn12` [Example 106, 2-(2,6-Difluorophenyl)-N-(4-(3,5-dimethylisoxazol-4-yl)pyridin-3-yl)imidazo[1,5-b]pyridazin-7-amine bis(2,2,2-trifluoroacetate)], the IC50 on Pim-1 [1] is 221 nM; on Pim-2 [2], more than 5000 nM.

Take `Fc1cccc(F)c1-c1ccc2cnc(Nc3cnccc3C3=CCNCC3)n2n1` [Example 105, 2-(2,6-Difluorophenyl)-N-(1′,2′,3′,6′-tetrahydro-[4,4′-bipyridin]-3-yl)imidazo[1,5-b]pyridazin-7-amine bis(2,2,2-trifluoroacetate)]: the IC50 stood at 35 nM at Pim-1 [1] and 1050 nM at Pim-2 [2].

On to `N[C@H]1CCCN(c2ccncc2Nc2ncc3ccc(-c4c(F)cccc4F)nn23)C1` [Example 1, N-(4-((3S)-3-amino-1-piperidinyl)-3-pyridinyl)-2-(2,6-difluorophenyl)imidazo[1,5-b]pyridazin-7-amine tris(2,2,2-trifluoroacetate)], for which the IC50 on Pim-1 [3] (setting [6]) came to 0.08 nM; in test [4] (setting [7]), 428 nM; on Pim-2 [5] (read-out: Pim2_IC50), 0.5 nM.

Consider `N[C@H]1CCCN(c2ncncc2Nc2ncc3ccc(-c4c(F)cccc4F)nn23)C1` [Example 36, (S)-N-(4-((3S)-3-amino-1-piperidinyl)-5-pyrimidinyl)-2-(2,6-difluorophenyl)imidazo[1,5-b]pyridazin-7-amine], for which the IC50 is 19.2 nM on Pim-1 [3] (setting [8]), more than 31600 nM in test [4] (setting [9]) and 110 nM on Pim-2 [5] (setting [10]).

On to `N[C@H]1CCCN(c2ccncc2Nc2ncc3ccc(-c4cccnc4F)nn23)C1` [Example 7, N-(4-((3S)-3-amino-1-piperidinyl)-3-pyridinyl)-2-(2-fluoro-3-pyridinyl)imidazo[1,5-b]pyridazin-7-amine], for which the IC50 is 0.9 nM on Pim-1 [3] (setting [6]), 6600 nM in test [4] (setting [7]) and 12 nM on Pim-2 [5] (setting [11]).

Turning to `C[C@H]1CCN(c2ccncc2Nc2ncc3ccc(-c4c(F)cccc4F)nn23)C[C@H]1N` (single isomer, unassigned) [Example 98, N-(4-((cis)-3-amino-4-methylpiperidin-1-yl)pyridin-3-yl)-2-(2,6-difluorophenyl)imidazo[1,5-b]pyridazin-7-amine bis(2,2,2-trifluoroacetate)], the IC50 at Pim-1 [3] (read-out: Pim-1 IC50 IP) turned out to be 2.8 nM; in test [4] (bis(2,2,2-trifluoroacetate), read-out: KMS-12-BM IC50 IP) it was 12100 nM; at Pim-2 [5] (read-out: Pim-2 IC50 IP), 15.7 nM.

As for `CN(C)C(=O)c1ccc(F)c(-c2ccc3cnc(Nc4cnccc4N4CCC[C@H](N)C4)n3n2)c1` [Example 89, (S)-3-(7-((4-(3-aminopiperidin-1-yl)pyridin-3-yl)amino)imidazo[1,5-b]pyridazin-2-yl)-4-fluoro-N,N-dimethylbenzamide tetra(2,2,2-trifluoroacetate)], the IC50 came out at 3.5 nM at Pim-1 [3] (setting [8]), 1350 nM in test [4] (setting [9]) and 5.3 nM at Pim-2 [5] (setting [10]).

For the compound `Nc1cccc(-c2ccncc2Nc2ncc3ccc(-c4c(F)cccc4F)nn23)c1` [Example 27, N-(4-(3-aminophenyl)-3-pyridinyl)-2-(2,6-difluorophenyl)imidazo[1,5-b]pyridazin-7-amine], the figures for the IC50 (on Pim-1 [3] (setting [6]); in test [4] (setting [7]); at Pim-2 [5] (setting [11])) were 9 nM, more than 1000 nM and 121 nM, respectively.

For `C[C@H]1CN(c2ccncc2Nc2ncc3ccc(-c4c(F)cccc4F)nn23)C[C@@H](N)[C@@H]1O` [Example 20, (3R,4R,5S)-3-amino-1-(3-((2-(2,6-difluorophenyl)imidazo[1,5-b]pyridazin-7-yl)amino)-4-pyridinyl)-5-methyl-4-piperidinol], the IC50 on Pim-1 [3] (setting [6]) came to 0.04 nM; in test [4] (setting [7]), 40 nM; on Pim-2 [5] (setting [11]), 0.08 nM.
